Where two headings read alike, the source gives them in different places.
What was measured:
TNFα = experiment: Cot Monocyte TNFα Cell Based Assay
Human Cot = Human Cot (Homo sapiens (Human), UniProt P41279); experiment: High Throughput Cot Biochemical Assay; details: Cot HTRF (TR-FRET) biochemical assay
[1] = Homo sapiens, Monocyte, read-out: EC50 TNF, LPS-stimulated human monocytes, TNFα
[2] = read-out: EC50 TNF, LPS-stimulated human monocytes, TNFα

Chain of Human Cot (P41279 30-397): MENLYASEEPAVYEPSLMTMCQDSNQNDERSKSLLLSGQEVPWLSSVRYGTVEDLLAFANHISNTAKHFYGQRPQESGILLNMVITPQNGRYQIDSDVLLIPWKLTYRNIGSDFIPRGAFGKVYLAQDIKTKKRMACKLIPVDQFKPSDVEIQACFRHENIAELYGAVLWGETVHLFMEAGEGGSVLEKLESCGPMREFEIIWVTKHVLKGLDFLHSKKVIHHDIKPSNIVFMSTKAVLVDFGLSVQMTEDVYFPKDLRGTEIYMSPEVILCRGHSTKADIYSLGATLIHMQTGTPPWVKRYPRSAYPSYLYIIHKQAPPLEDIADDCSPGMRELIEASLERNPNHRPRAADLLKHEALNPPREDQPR

Row | Structure (SMILES) | EC50 (TNFα; [1]) [µM] | IC50 (Human Cot; IC50 HTRF) [µM] | EC50 (TNFα; [2]) [µM] | IC50 (Human Cot; read-out: IC50 HTRF) [µM]
1 | Cc1nc(F)ccc1[C@H](Nc1cc(C#N)c2ncc(C#N)c(NCC(C)(C)C)c2c1)c1cn(C2(C(=O)N(C)C)CC2)nn1 [Example 642, (S)-1-(4-(((3,8-dicyano-4-(neopentylamino)quinolin-6-yl)amino)(6-fluoro-2-methylpyridin-3-yl)methyl)-1H-1,2,3-triazol-1-yl)-N,N-dimethylcyclopropane-1-carboxamide] | 0.182 | 0.005 | – | –
2 | Cc1nc(F)ccc1[C@H](Nc1cc(Cl)c2ncc(C#N)c(NCC(C)(C)C)c2c1)c1nnn(C2CC2)c1I [Example 643, (S)-8-chloro-6-(((1-cyclopropyl-S-iodo-1H-1,2,3-triazol-4-yl)(6-lluoro-2-methylpyridin-3-yl)methyl)amino)-4-(neopentylamino)quinoline-3-carbonitrile] | – | – | 1 | 0.005
3 | Cc1nc(F)ccc1[C@H](Nc1cc(Cl)c2ncc(C#N)c(NCC(C)(C)C)c2c1)c1cn(C2CC(F)(F)C2)nn1 [Example 645, (S)-8-chloro-6-(((1-(3,3-difluorocyclobutyl)-1H-1,2,3-triazol-4-yl)(6-fluoro-2-methylpyridin-3-yl)methyl)amino)-4-(neopentylamino)quinoline-3-carbonitrile] | 0.066 | 0.011 | – | –
4 | Cc1nc(F)ccc1[C@H](Nc1cc(Cl)c2ncc(C#N)c(NCC(C)(C)C)c2c1)c1cn(C23CC(C2)C3)nn1 [Example 646, (S)-6-(((1-(bicyclo[1.1.1]pentan-1-yl)-1H-1,2,3-triazol-4-yl)(6-fluoro-2-methylpyridin-3-yl)methyl)amino)-8-chloro-4-(neopentylamino)quinoline-3-carbonitrile] | 0.04 | 0.003 | – | –
5 | Cc1nc(F)ccc1[C@H](Nc1cc(Cl)c2ncc(C#N)c(NCC(C)(C)C)c2c1)c1cn(C2(CO)COC2)nn1 [Example 648, (S)-8-chloro-6-(((6-fluoro-2-methylpyridin-3-yl)(1-(3-(hydroxymethyl)oxetan-3-yl)-1H-1,2,3-triazol-4-yl)methyl)amino)-4-(neopentylamino)quinoline-3-carbonitrile] | 0.114 | 0.003 | – | –
6 | [2H][C@@](Nc1cc(Cl)c2ncc(C#N)c(NCC(C)(C)C)c2c1)(c1cn(C2CC2)nn1)c1cccnc1N(C)C [Example 650, (S)-8-chloro-6-(((1-cyclopropyl-1H-1,2,3-triazol-4-yl)(2-(dimethylamino)pyridin-3-yl)methyl-d)amino)-4-(neopentylamino)quinoline-3-carbonitrile] | 1 | 0.179 | – | –
7 | CC(C)(C)CNc1c(C#N)cnc2c(Cl)cc(N[C@H](c3cn(C4(C(F)F)CC4)nn3)c3ccc(F)c4cnccc34)cc12 [Example 652, (S)-8-chloro-6-(((1-(1-(difluoromethyl)cyclopropyl)-1H-1,2,3-triazol-4-yl)(8-fluoroisoquinolin-5-yl)methyl)amino)-4-(neopentylamino)quinoline-3-carbonitrile] | 0.04 | 0.004 | – | –
8 | Cc1nc(F)ccc1[C@H](Nc1cc(Cl)c2ncc(C#N)c(NCC(C)(C)C)c2c1)c1cn(Cc2c(F)cccc2F)nn1 [Example 654, (S)-8-chloro-6-(((1-(2,6-difluorobenzyl)-1H-1,2,3-triazol-4-yl)(6-fluoro-2-methylpyridin-3-yl)methyl)amino)-4-(neopentylamino)quinoline-3-carbonitrile] | 0.036 | 0.003 | – | –
9 | Cn1ncc2c([C@H](Nc3cc(C#N)c4ncc(C#N)c(NCC(C)(C)C)c4c3)c3cn(Cc4c(F)cccc4F)nn3)cccc21 [Example 656] | – | – | 0.086 | 0.004
10 | Cc1cncc2cccc([C@H](Nc3cc(Cl)c4ncc(C#N)c(NCC(C)(C)C)c4c3)c3cn(C4(C(F)(F)F)CC4)nn3)c12 [Example 659, (S)-8-chloro-6-(((4-methylisoquinolin-5-yl)(1-(1-(trifluoromethyl)cyclopropyl)-1H-1,2,3-triazol-4-yl)methyl)amino)-4-(neopentylamino)quinoline-3-carbonitrile] | 0.279 | 0.041 | – | –
11 | Cc1ccnc2cccc([C@H](Nc3cc(Cl)c4ncc(C#N)c(NCC(C)(C)C)c4c3)c3cn(C4(C(F)(F)F)CC4)nn3)c12 [Example 660, (S)-8-chloro-6-(((4-methylquinolin-5-yl)(1-(1-(trifluoromethyl)cyclopropyl)-1H-1,2,3-triazol-4-yl)methyl)amino)-4-(neopentylamino)quinoline-3-carbonitrile] | 0.839 | 0.043 | – | –
12 | Cc1nc(F)ccc1[C@H](Nc1cc(C#N)c2ncc(C#N)c(NCC(C)(C)C)c2c1)c1cn(C(F)(F)CO)nn1 [Example 661, (S)-6-(((1-(1,1-difluoro-2-hydroxyethyl)-1 H-1,2,3-triazol-4-yl)(6-fluoro-2-methylpyridin-3-yl)methyl)amino)-4-(neopentylamino)quinoline-3,8-dicarbonitrile] | 0.103 | 0.002 | – | –
13 | Cc1nc(F)ccc1[C@H](Nc1cc(Cl)c2ncc(C#N)c(NCC(C)(C)C)c2c1)c1nnn(C2CC2)c1Cl [Example 662, (S)-8-chloro-6-(((5-chloro-1-cyclopropyl-1H-1,2,3-triazol-4-yl)(6-fluoro-2-methylpyridin-3-yl)methyl)amino)-4-(neopentylamino)quinoline-3-carbonitrile] | 0.335 | 0.006 | – | –
14 | Cc1nc(F)ccc1[C@H](Nc1cc(Cl)c2ncc(C#N)c(NCC(C)(C)C)c2c1)c1nnn(C2CC2)c1F [Example 663, (S)-8-chloro-6-(((1-cyclopropyl-5-fluoro-1H-1,2,3-triazol-4-yl)(6-fluoro-2-methylpyridin-3-yl)methyl)amino)-4-(neopentylamino)quinoline-3-carbonitrile] | 0.062 | 0.003 | – | –
15 | Cn1nccc1[C@H](Nc1cc(Cl)c2ncc(C#N)c(NCC(C)(C)C)c2c1)c1cn(C2(C(F)F)CC2)nn1 [Example 665, (S)-8-chloro-6-(((1-(1-(difluoromethyl)cyclopropyl)-1H-1,2,3-triazol-4-yl)(1-methyl-1H-pyrazol-5-yl)methyl)amino)-4-(neopentylamino)quinoline-3-carbonitrile] | 0.198 | 0.006 | – | –
16 | Cc1nc(F)ccc1[C@H](Nc1cc(Cl)c2ncc(C#N)c(N[C@@H]3CCOCC3(C)C)c2c1)C1=CN(C2(C3CC3)CC2)NN1 [Example 669] | – | – | 0.007 | 0.001

Results, then the compound that gave them:

Row | EC50 (TNFα; [1]) [µM] | IC50 (Human Cot; IC50 HTRF) [µM] | EC50 (TNFα; [2]) [µM] | IC50 (Human Cot; read-out: IC50 HTRF) [µM] | Structure (SMILES)
17 | 0.102 | 0.005 | – | – | CC(C)(C)CNc1c(C#N)cnc2c(C#N)cc(N[C@H](c3cn(C4(C(F)(F)F)CC4)nn3)c3ccc(C#N)c4cnccc34)cc12 [Example 670, (S)-6-(((8-cyanoisoquinolin-5-yl)(1-(1-(trifluoromethyl)cyclopropyl)-1H-1,2,3-triazol-4-yl)methyl)amino)-4-(neopentylamino)quinoline-3,8-dicarbonitrile]
18 | – | – | 0.032 | 0.002 | CC(C)(C)CNc1c(C#N)cnc2c(C#N)cc(N[C@H](c3cn(C4(C(F)F)CC4)nn3)c3ccc(F)c4ncccc34)cc12 [Example 671]
19 | – | – | 0.022 | 0.002 | CC(C)(C)CNc1c(C#N)cnc2c(C#N)cc(N[C@H](c3cn(C4(C(F)F)CC4)nn3)c3ccc(F)c4cnccc34)cc12 [Example 672]
20 | 0.808 | 0.142 | – | – | CC(C)(C)CNc1c(C#N)cnc2c(C#N)cc(N[C@H](c3cn(C4(C(F)(F)F)CC4)nn3)c3cncc4ccccc34)cc12 [Example 673, (S)-6-((isoquinolin-4-yl(1-(1-(trifluoromethyl)cyclopropyl)-1H-1,2,3-triazol-4-yl)methyl)amino)-4-(neopentylamino)quinoline-3,8-dicarbonitrile]
21 | 0.301 | 0.022 | – | – | Cc1nc([C@H](Nc2cc(C#N)c3ncc(C#N)c(NCC(C)(C)C)c3c2)c2cn(C3(C(F)F)CC3)nn2)c(C)o1 [Example 674, (S)-6-(((1-(1-(difluoromethyl)-cyclopropyl)-1H-1,2,3-triazol-4-yl)(2,5-dimethyloxazol-4-yl)methyl)amino)-4-(neopentylamino)quinoline-3,8-dicarbonitrile]
22 | – | – | 0.007 | 0.001 | Cc1nc(F)ccc1[C@H](Nc1cc(C#N)c2ncc(C#N)c(N[C@@H]3CCOCC3(C)C)c2c1)c1cn(C2(C3CC3)CC2)nn1 [Example 675]
23 | 0.112 | 0.006 | – | – | CC(C)(C)CNc1c(C#N)cnc2c(Cl)cc(N[C@H](c3cn(C4(C(F)(F)F)CC4)nn3)c3cccc4c(=O)[nH]ccc34)cc12 [Example 676, (S)-8-chloro-4-(neopentylamino)-6-(((1-oxo-1,2-dihydroisoquinolin-5-yl)(1-(1-(trifluoromethyl)cyclopropyl)-1H-1,2,3-triazol-4-yl)methyl)amino)quinoline-3-carbonitrile]
24 | – | – | 0.133 | 0.004 | Cn1nccc1[C@H](Nc1cc(C#N)c2ncc(C#N)c(NCC(C)(C)C)c2c1)c1cn(C2(C(F)F)CC2)nn1 [Example 677, (S)-6-(((1-(l-(difluoromethyl)-cyclopropyl)-1H-1,2,3-triazol-4-yl)(1-methyl-1H-pyrazol-5-yl)methyl)amino)-4-(neopentylamino)quinoline-3,8-dicarbonitrile]
25 | 0.131 | 0.005 | – | – | Cn1nccc1[C@H](Nc1cc(C#N)c2ncc(C#N)c(NCC(C)(C)C)c2c1)c1cn(C2(C(F)(F)F)CC2)nn1 [Example 678, (S)-6-(((1-methyl-1H-pyrazol-5-yl)(1-(1-(trifluoromethyl)cyclopropyl)-1H-1,2,3-triazol-4-yl)methyl)amino)-4-(neopentylamino)quinoline-3,8-dicarbonitrile]
26 | 0.098 | 0.003 | – | – | Cc1nc(F)ccc1[C@H](Nc1cc(C#N)c2ncc(C#N)c(NCC(C)(C)C)c2c1)c1nnn(C2CC2)c1Cl [Example 680, (S)-6-(((5-chloro-1-cyclopropyl-1H-1,2,3-triazol-4-yl)(6-fluoro-2-methylpyridin-3-yl)methyl)amino)-4-(neopentylamino)quinoline-3,8-dicarbonitrile]

Reference: patent US11066414B2, “Cot modulators and methods of use thereof” (Gilead Sciences, Inc., priority 2015, dated 2021)
